According to patent US8609653B2, “Azaindole compounds and methods for treating HIV” (priority 2011, dated 2013):

test system: HIV; assay: MT4 assay: antiviral HIV activity in MT-4 cells; assay type: cell-based; settings: Human immunodeficiency virus 1, MT4, 96 h, read-out: HIV MT4 Assay IC50 (μM), HTLV-1 transformed cell line MT-4; read-out 96 hours later with cell titer glo; 10 point dose response
Procedure, shortened: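 Compounds tested in HTLV-1-transformed MT-4 cells for protection from HIV, with cytotoxicity run in parallel under the same conditions; CellTiter-Glo luminescence read 96 h later. IC50 from 10-point, 3–4-fold serial dilutions spanning >1000-fold, % inhibition relative to no-compound control, fitted by four-parameter logistic.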

Going from `Cc1cc(F)ccc1Cn1ccc2c(-c3ccc4c(c3C)CCCO4)c([C@H](OC(C)(C)C)C(=O)O)c(C)nc21` [Example 125, (2S)-2-(tert-butoxy)-2-(1-(4-fluoro-2-methylbenzyl)-6-methyl-4-(5-methylchroman-6-yl)-1H-pyrrolo[2,3-b]pyridin-5-yl)acetic acid] to `Cc1nc2c(c(-c3ccc4c(c3C)CCCO4)c1C(OC(C)(C)C)C(=O)O)c1ccccc1n2C` (stereo not drawn) [Example 127, 2-(tert-butoxy)-2-(2,9-dimethyl-4-(5-methylchroman-6-yl)-9H-pyrido[2,3-b]indol-3-yl)acetic acid], the IC50 rises from 0.003 µM to 0.05 µM (17-fold).

`Cc1nc2c(c3c(n2C2CC2)CCCC3)c(-c2ccc3c(c2C)CCCO3)c1C(OC(C)(C)C)C(=O)O` (stereo not drawn) [Example 128, 2-(tert-butoxy)-2-(9-cyclopropyl-2-methyl-4-(5-methylchroman-6-yl)-6,7,8,9-tetrahydro-5H-pyrido[2,3-b]indol-3-yl)acetic acid] showed an IC50 of 0.06 µM.
